From patent US5506122A, “Process for producing nucleosides” (Yamasa Shoyu Kabushiki Kaisha, priority 1989, dated 1996)
Like-named read-outs stand apart in the source and are kept apart here.

Columns and labels:
[1] = target: T1, purine nucleoside phosphorylase (Geobacillus stearothermophilus, UniProt P77834); test: Substrate specificity: phosphorolysis of purine nucleoside substrates by purified enzyme; format: biochemical, Bacillus stearothermophilus TH6-2; settings: for activity at 10000 µM: 10 min; for Substrate specificity of purine nucleoside phosphorylase, in words: within the range tested
T1 construct: nucleoside phosphorylase obtained by extraction/purification from Bacillus stearothermophilus TH6-2; endogenous in cells; host or cells: Bacillus stearothermophilus TH6-2 (FERM BP-2758), enzyme purified in house from the wild cells
T1 sequence (P77834 1-274): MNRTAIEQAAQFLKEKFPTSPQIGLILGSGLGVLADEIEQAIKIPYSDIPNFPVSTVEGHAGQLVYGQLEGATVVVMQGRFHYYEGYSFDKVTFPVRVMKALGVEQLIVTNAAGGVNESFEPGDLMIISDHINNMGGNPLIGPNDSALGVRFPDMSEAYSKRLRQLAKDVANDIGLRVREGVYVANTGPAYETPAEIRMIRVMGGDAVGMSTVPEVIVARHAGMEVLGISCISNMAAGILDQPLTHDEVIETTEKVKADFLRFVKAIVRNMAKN
Description: Into 1.0 ml of a substrate solution (aqueous solution of pH 8.0 containing 20 mM inosine and 0.1M potassium dihydrogenphosphate) is added 20 μl of an enzyme solution (50 mM acetate buffer (pH 6.0) containing 1 μg of purified enzyme), and the reaction is carried out at 50° C. for 10 minutes. Then the reaction is stopped by addition of HCl to a final concentration of 0.1N, and also cooling at 0° C. for 10 minutes. Next, the reaction is subjected to centrifugation, and the supernatant obtained is then subjected to the HPLC method (column: YMC A-312 (manufactured by Yamamura Kagaku Kenkyusho, K.K.), eluent: 20 mM Tris-HCl buffer (pH 7.5) containing 5.0% acetonitrile, detection: 260 nm) to quantitate the hypoxanthine formed. The enzyme amount forming 1 μmol of hypoxanthine per one minute is defined as one unit ("U").
(§1) By the use of an aqueous solution of pH 8.0 containing 10 mM of a nucleoside and 50 mM of potassium dihydrogenphosphate as a substrate solution, the reaction is carried out at 50° C. for 10 minutes, and after the reaction, except for quantitating the base of the nucleoside according to the HPLC method, the same method as in the assay of purine nucleoside phosphorylase activity is conducted.

[2] = target: T2, pyrimidine nucleoside phosphorylase (Geobacillus stearothermophilus, UniProt P77836); test: Substrate specificity: phosphorolysis of pyrimidine nucleoside substrates by purified enzyme; format: biochemical, Bacillus stearothermophilus TH6-2; settings: for Amount of Base Formed / Relative Activity: 10 mM nucleoside, 50 mM potassium dihydrogenphosphate, pH 8.0, 50° C., 10 minutes; for Substrate specificity of pyrimidine nucleoside phosphorylase, in words: within the range tested
T2 construct: nucleoside phosphorylase obtained by extraction/purification from Bacillus stearothermophilus TH6-2; endogenous in cells; host or cells: Bacillus stearothermophilus TH6-2 (FERM BP-2758), enzyme purified in house from the wild cells
T2 sequence (P77836 1-433): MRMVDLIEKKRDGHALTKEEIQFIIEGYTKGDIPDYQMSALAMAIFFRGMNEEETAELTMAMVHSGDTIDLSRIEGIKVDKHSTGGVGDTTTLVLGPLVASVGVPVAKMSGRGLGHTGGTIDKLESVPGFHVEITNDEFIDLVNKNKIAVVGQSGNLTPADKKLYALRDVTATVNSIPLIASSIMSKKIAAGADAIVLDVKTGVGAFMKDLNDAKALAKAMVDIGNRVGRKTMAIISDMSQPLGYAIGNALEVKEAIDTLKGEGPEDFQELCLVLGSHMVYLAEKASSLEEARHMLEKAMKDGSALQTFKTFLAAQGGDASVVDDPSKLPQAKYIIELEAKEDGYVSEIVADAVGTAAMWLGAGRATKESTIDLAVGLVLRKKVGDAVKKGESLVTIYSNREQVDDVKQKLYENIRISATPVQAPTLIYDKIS
Description: Except for using uridine in place of inosine in the substrate solution and quantitating uracil according to the HPLC method, the same method as in the above-described assay of purine nucleoside phosphorylase activity is conducted. The amount of enzyme forming 1 μmol of uracil per one minute is defined as one unit.
as §1

[3] = 10 mM nucleoside, 50 mM potassium dihydrogenphosphate, pH 8.0, 50° C., 10 minutes
[4] = 10 mM nucleoside, 50 mM potassium dihydrogenphosphate, pH 8.0, 50° C., 10 minutes, read-out: Relative Activity
[5] = pH 8, read-out: Relative Activity

Compound | Amount of Base Formed [1, 3] | activity at 10000 µM [1, 4] | Amount of Base Formed [2] | Relative Activity [2] | further results
Nc1ncnc2c1ncn2[C@H]1C[C@H](O)[C@@H](CO)O1 [2'-Deoxyadenosine] | 0 μmol/10 min. | 0% | – | – | –
Nc1ccn([C@H]2C[C@H](O)[C@@H](CO)O2)c(=O)n1 [2'-Deoxycytidine] | – | – | 0 μmol/10 min. | 0% | –
Nc1nc2c(ncn2[C@H]2C[C@H](O)[C@@H](CO)O2)c(=O)[nH]1 [2'-Deoxyguanosine] | 2.18 μmol/10 min. | 85% | – | – | Substrate specificity of purine nucleoside phosphorylase, in words [1]: specific
OC[C@H]1O[C@@H](n2cnc3c(O)ncnc32)C[C@@H]1O [2'-Deoxyinosine] | 2.54 μmol/10 min. | 100% | – | – | Substrate specificity of purine nucleoside phosphorylase, in words [1]: specific
O=c1ccn([C@H]2C[C@H](O)[C@@H](CO)O2)c(=O)[nH]1 [2'-Deoxyuridine] | – | – | 2.55 μmol/10 min. | 100% | Substrate specificity of pyrimidine nucleoside phosphorylase, in words [2]: specific
Nc1ncnc2c1ncn2[C@@H]1O[C@H](CO)C[C@H]1O [3'-Deoxyadenosine] | 0 μmol/10 min. | 0% | – | – | –
OC[C@@H]1C[C@@H](O)[C@H](n2cnc3c(O)ncnc32)O1 [3'-Deoxyinosine] | 0 μmol/10 min. | 0% | – | – | –
Nc1ncnc2c1ncn2[C@@H]1O[C@H](CO)[C@@H](O)[C@H]1O [Adenosine] | 0.15 μmol/10 min. | – | – | – | activity at 10000 µM [1, 5]: 5%; Substrate specificity of purine nucleoside phosphorylase, in words [1]: does not recognize them as the substrate
Nc1ncnc2c1ncn2[C@@H]1O[C@H](CO)[C@@H](O)[C@@H]1O [Arabinofuranosyl adenine] | – | – | – | – | activity at 10000 µM [1, 5]: 0%
O=c1ccn([C@@H]2O[C@H](CO)[C@@H](O)[C@@H]2O)c(=O)[nH]1 [Arabinofuranosyl uracil] | – | – | – | 0% | –
O=c1ccn2c(n1)O[C@H]1[C@H](O)[C@@H](CO)O[C@H]12 [Cyclouridine] | – | – | 0 μmol/10 min. | 0% | –
Nc1ccn([C@@H]2O[C@H](CO)[C@@H](O)[C@H]2O)c(=O)n1 [Cytidine] | – | – | 0 μmol/10 min. | 0% | Substrate specificity of pyrimidine nucleoside phosphorylase, in words [2]: does not recognize them as the substrate
Nc1nc2c(ncn2[C@@H]2O[C@H](CO)[C@@H](O)[C@H]2O)c(=O)[nH]1 [Guanosine] | 2.15 μmol/10 min. | 84% | – | – | Substrate specificity of purine nucleoside phosphorylase, in words [1]: specific
OC[C@H]1O[C@@H](n2cnc3c(O)ncnc32)[C@H](O)[C@@H]1O [Inosine] | 2.55 μmol/10 min. | 100% | – | – | Substrate specificity of purine nucleoside phosphorylase, in words [1]: specific
O=c1[nH]cc([C@@H]2O[C@H](CO)[C@@H](O)[C@H]2O)c(=O)[nH]1 [Pseudouridine] | – | – | 0 μmol/10 min. | 0% | –
Cc1cn([C@@H]2O[C@H](CO)[C@@H](O)[C@H]2O)c(=O)[nH]c1=O [Ribofuranosyl thymine] | – | – | – | 38% | –
Cc1cn([C@H]2C[C@H](O)[C@@H](CO)O2)c(=O)[nH]c1=O [Thymidine] | – | – | 1.71 μmol/10 min. | 67% | Substrate specificity of pyrimidine nucleoside phosphorylase, in words [2]: specific
O=c1ccn([C@@H]2O[C@H](CO)[C@@H](O)[C@H]2O)c(=O)[nH]1 [Uridine] | – | – | 1.73 μmol/10 min. | 68% | Substrate specificity of pyrimidine nucleoside phosphorylase, in words [2]: specific
